# Measured values as given in US4248864A, “Reproduction control” (American Home Products Corporation, priority 1979, dated 1981).
# Where “and” joins values, the source holds several entries; their conditions need not be identical. Equal entries are not always repeated. Entries after “also recorded” stand apart in the source; their conditions may differ.
# What was measured:
# [1] = tested on: Female Charles River CD rats (pregnancy); assay: Post-coital contraceptive effect in the rat: single intrauterine (right horn) administration on D5 of pregnancy; format: in vivo; details: for Number of placental sites, left horn / Number of placental sites, right horn (injected) / Number of viable fetuses, left horn / Number of viable fetuses, right horn (injected) / Uterine weight, left horn and contents / Uterine weight, right horn (injected) and contents: autopsy D20, 15 rats/group; for Uterine weight, left horn and contents / Uterine weight, right horn (injected) and contents: in g
# Experimental: Female Charles River CD® rats (200-210 g) were allowed to cohabit with proven males; the presence of sperm in the vaginal smear was considered day 1 (D1) of pregnancy. In order to lessen the problem of variability between experiments, 5 rats were autopsied at each dose level and the study replicated 3 times to accumulate a total of 15 rats in each experimental group. Luteinizing hormone-releasing hormone was dissolved in 2 μl of 0.9% NaCl and injected into the right horn of the uterus below the utero-tubal junction between 0945 and 1015 h on D5. One group of control animals received an intrauterine (IU) injection of 2 μl saline into the right horn on D5. The control animals were autopsied in groups of 5 rats and replicated 3 times to accumulate a total of 15 rats. On D20 the rats were sacrificed, and the uterine horns were divided and weighed individually. The number of viable fetuses as well as the number of placental sites in each horn was recorded. Fetuses from both horns, in control and experimental groups, were examined and weighed individually. A viable fetus is defined as one which compares in anatomical development and weight to a normal control fetus at D20 of gestation. Statistical analysis of the number of viable fetuses and placental sites in each horn was determined by the Kruwalc-Henderson method (Proc. Third Am. Conference of the SAS Users Group International, SAS Institute, Raleigh, North Carolina (1978)); uterine weights of each horn were subjected to analysis of variance (Conover, Practical Nonparametric Statistics, N.Y. John Wiley and Sons, Inc. page 256 (1979)).
# Following the same procedure, [D-Trp^6, des-Gly-NH2^10 ]LHRH ethylamide (a representative LHRH agonist analogue) was injected into the uterine lumen of the right uterine horn of female Charles River CD® rats on day 5 after coitus. The status of the pregnancy as indicated by viable fetuses was as follows: […]
# [2] = tested on: zona pellucida of blastocyst; assay: In vitro removal (lysis) of the zona pellucida of a blastocyst; format: cell-based
# Source text: To denude a blastocyst of its zona pellucide in vitro the fertilized ovum is removed from the uterus of the donor animal by known means. The blastocyst is then placed in a small volume of known compatable medium such as physiological saline and LHRH or an agonist is introduced into the medium. The course of removal of the zona pellucida may be readily followed with a microscope and the time period necessary for complete removal of the zona is related to the concentration of the releasing hormone, thereby permitting timed blastocyst release during egg transplant procedures. At 500 μg/μl LHRH in 0.9 percent saline the zona pellucida lyses in about 0.5 minutes; at 50 μg/μl in about 15 to 25 minutes and at 15 μg/μl in about 60 minutes. Recovery of the free blastocyst and transfer to the uterus of a properly prepared and timed mammalion species may then be effected by conventional transfer techniques under optimal timing conditions of both the fertilized egg and the uterine epithelium.
# [3] = tested on: Female Charles River CD rats (pregnancy); assay: Single intravaginal or intrajugular administration on D5 of pregnancy; format: in vivo, rat; details: for Number of placental sites, left horn / Number of placental sites, right horn / Number of viable fetuses, left horn / Number of viable fetuses, right horn / Uterine weight, left horn / Uterine weight, right horn: 5 rats/group; for Uterine weight, left horn / Uterine weight, right horn: in g
# pregnancy = details: cited from earlier work
# [4] = 100 μg intrauterine right horn D5
# [5] = 200 μg intrauterine right horn D5
# [6] = 300 μg intrauterine right horn D5
# [7] = 500 μg intrauterine right horn D5
# [8] = 1,000 μg intrauterine right horn D5
# [9] = dose 1,000, single intrajugular (IV) D5
# [10] = dose 1,000, single intravaginal (Vag) D5
# [11] = 10 μg into right uterine horn day 5 after coitus, 4 rats
# [12] = 100 μg into right uterine horn day 5 after coitus, 5 rats
# [13] = 1,000 μg into right uterine horn day 5 after coitus, 4 rats
substance,measurement,setting,value
Luteinizing hormone releasing hormone [LHRH],"Number of placental sites, left horn",[1]; [4],0.1 ± 0.1
same,"Number of placental sites, right horn (injected)",[1]; [4],0.1 ± 0.1
same,"Number of viable fetuses, left horn",[1]; [4],5.7 ± 0.4
same,"Number of viable fetuses, right horn (injected)",[1]; [4],3.2 ± 0.3
same,"Uterine weight, left horn and contents",[1]; [4],19.1 ± 1.5
same,"Uterine weight, right horn (injected) and contents",[1]; [4],12.0 ± 1.0
same,"Number of placental sites, left horn",[1]; [5],0.1 ± 0.1
same,"Number of placental sites, right horn (injected)",[1]; [5],1.6 ± 0.5
same,"Number of viable fetuses, left horn",[1]; [5],5.4 ± 0.8
same,"Number of viable fetuses, right horn (injected)",[1]; [5],1.7 ± 0.4
same,"Uterine weight, left horn and contents",[1]; [5],19.4 ± 2.7
same,"Uterine weight, right horn (injected) and contents",[1]; [5],6.5 ± 1.3
same,"Number of placental sites, left horn",[1]; [6],0.7 ± 0.6
same,"Number of placental sites, right horn (injected)",[1]; [6],1.3 ± 0.3
same,"Number of viable fetuses, left horn",[1]; [6],6.5 ± 0.6
same,"Number of viable fetuses, right horn (injected)",[1]; [6],1.5 ± 0.4
same,"Uterine weight, left horn and contents",[1]; [6],21.2 ± 2.3
same,"Uterine weight, right horn (injected) and contents",[1]; [6],6.9 ± 1.6
same,"Number of placental sites, left horn",[1]; [7],0.5 ± 0.3
same,"Number of placental sites, right horn (injected)",[1]; [7],1.5 ± 0.7
same,"Number of viable fetuses, left horn",[1]; [7],6.1 ± 0.7
same,"Number of viable fetuses, right horn (injected)",[1]; [7],1.3 ± 0.3
same,"Uterine weight, left horn and contents",[1]; [7],21.8 ± 2.0
same,"Uterine weight, right horn (injected) and contents",[1]; [7],6.0 ± 0.9
same,"Number of placental sites, left horn",[1]; [8],0.3 ± 0.2
same,"Number of placental sites, right horn (injected)",[1]; [8],2.3 ± 0.6
same,"Number of viable fetuses, left horn",[1]; [8],6.9 ± 0.7
same,"Number of viable fetuses, right horn (injected)",[1]; [8],0.8 ± 0.2 and 0.8
same,"Uterine weight, left horn and contents",[1]; [8],24.3 ± 2.5
same,"Uterine weight, right horn (injected) and contents",[1]; [8],4.3 ± 0.8
same,Number of placental sites vs control,[1]; 200-1000 μg intrauterine right horn D5,significant increase
same,Number of viable fetuses in the right horn vs control,"[1]; all doses (100-1,000 μg) intrauterine right horn D5",significant reduction
same,Single intra-uterine treatment dose sufficient to prevent pregnancy,[1],"about 1,000 μg"
same,Time to lysis of the zona pellucida,[2]; 15 μg/μl in 0.9 percent saline,about 60 minutes
same,Time to lysis of the zona pellucida,[2]; 500 μg/μl in 0.9 percent saline,about 0.5 minutes
same,"Effect on pregnancy (viable fetuses, uterine weight, placental sites) in either horn",[3]; 1000 μg via jugular vein or vagina on D5,failed to alter the pregnancy in either horn; also recorded: inactive; also recorded: no negative effects
same,"Number of placental sites, left horn",[3]; [9],0.6±0.2
same,"Number of placental sites, right horn",[3]; [9],0.2±0.2
same,"Number of viable fetuses, left horn",[3]; [9],7.4±0.7
same,"Number of viable fetuses, right horn",[3]; [9],5.4±1.0
same,"Uterine weight, left horn",[3]; [9],26.3±3.0
same,"Uterine weight, right horn",[3]; [9],18.2±3.9
same,"Number of placental sites, left horn",[3]; [10],0.4±0.2
same,"Number of placental sites, right horn",[3]; [10],0.2±0.2
same,"Number of viable fetuses, left horn",[3]; [10],6.6±0.9
same,"Number of viable fetuses, right horn",[3]; [10],7.4±0.8
same,"Uterine weight, left horn",[3]; [10],20.5±2.9
same,"Uterine weight, right horn",[3]; [10],21.4±2.0
same,Effect on number of viable fetuses or uterine weight,"pregnancy; 1000 μg injection (s.c.) on D5, Humphrey et al.",failed to alter
same,Effect on ensuing pregnancy,"pregnancy; acute subcutaneous injection of 5000 μg, Beattie and Corbin 1977",failed to inhibit the ensuing pregnancy
[D-Trp^6 -N-methyl-Leu^7 des-Gly NH2^10 ]LHRH ethylamide,Single intra-uterine treatment dose sufficient to prevent pregnancy,[1],100 µg
"[D-Trp^6, des-Gly-NH2^10 ]LHRH ethylamide","Viable Fetuses Mean, Left",[1]; [11],6.5
same,"Viable Fetuses Mean, Right",[1]; [11],3.8
same,"Viable Fetuses Mean, Left",[1]; [12],3.6
same,"Viable Fetuses Mean, Right",[1]; [12],0.4
same,"Viable Fetuses Mean, Left",[1]; [13],3.3
same,"Viable Fetuses Mean, Right",[1]; [13],0.5
